Source: patent US20170080198A1, “DEVICES AND METHODS FOR ENHANCING THE TOPICAL APPLICATION OF A BENEFIT AGENT” (Johnson & Johnson Consummer Inc., priority 2015, published 2017)

Assay: In vitro skin permeation study, Franz diffusion cell, with or without ultrasound (sonophoresis)
Assay type: in vitro ADME, human
Details: for UT60°/Non-UTGel 1 (permeation enhancement factor): Study 2, Gel 1 with 60° sonophoresis vs Gel 1 passive; for UT15°/Non-UTGel 1 (permeation enhancement factor) / UT90°/Non-UTGel 1 (permeation enhancement factor): Study 3; for UT15°/Non-UTGel 1 (permeation enhancement factor): Gel 1 with 15° sonophoresis vs Gel 1 passive; for UT90°/Non-UTGel 1 (permeation enhancement factor): Gel 1 with 90° sonophoresis vs Gel 1 passive
Excerpt: The experimental setup to run sonophoresis (ultrasound) studies with Franz cell diffusion cells consisted of a custom-built universal generator capable of driving ultrasonic transducers in the 20 kHz-2 MHz range with electronic power up to 60 W (Voltage+/−30V, Current: 2A, duty cycle 50%) with a square waveform. The real power delivered to the transducer depended on the specific experimental conditions and is specified for each experiment. The driving waveform was delivered to the transducer through a coaxial cable having a BNC connector at one end and a custom non-coaxial connector at the transducer end.
The tranducer was piezoelectric and had either a disk shaped form (either 20 or 25 mm in diameter) or a rectangular shape 10×20 mm^2). The thickness of the transducer depended on its fundamantal frequency being inversely proportional with it. In order to prevent the liquid or the gel from perturbing the electrical connection, each transducer was encapsulated in a plastic case leaving only one side of the transducer exposed to the topical composition. The case was made out of a rigid plastic and the transducers were sealed with silicone adhesive to enable them to oscilalte more or less freely. The case also enabled the electrical connections to be isolated from the topical composition.
For sonophoresis experiments where the ultrasonic wave energy was delivered perpendicular to the skin, disk-shaped transducers were used in the encapsulation setup described above. For the angled ultrasound application the case encapsulating the ultrasonic transducer was assembled in a hinged configuration, enabling angles between 15 and 90 degrees (perpendicular). Note: an angle of 0 degrees would send the ultrasonic wave parallel with the skin surface.
In vitro skin permeation studies on 5% Ibuprofen gel compositions without ultrasound (passive diffusion), or facilitated by the application of ultrasound (sonophoresis), through human cadaver skin were performed as follows:
A skin penetration study evaluated the penetration of ibuprofen through the human skin for the inventive sample prepared as disclosed in Example 1. A commercial ibuprofen gel product, IBULEVE Ibuprofen Gel (by DDD ltd, Watford, Herts, WD18 7JJ, UK) was used as a benchmark, which contains 5% W/W ibuprofen, also IMS (Industrial Methylated Spirits), carbomer, propylene glycol, diethylamine and purified water according to the product label on its package. A well-known Franz diffusion cell method (taught in US20020006418 A1 which is hereby incorporated by reference) was used. […] A magnetic stirrer bar was added in the […]. The liquid receptor was filled with Phosphate-buffered saline (PBS) solution. Air bubbles in the […] were removed. The system was thermostated at 37° C. above a magnetic stirrer to ensure the homogeneity of the liquid receptor during the experiment. A human cadaver skin sample from a commercial tissue bank (Ohio Valley Tissue and Skin Center, Cincinnati, Ohio, dermatomed to approximately 0.4 mm) was cut to fit the glass diffusion cell and the skin was mounted on the Franz cell.
For the diffusion cells designated to be tested for passive diffusion, a test gel sample of 0.2 ml was applied on the skin surface. For the diffusion cells designated to test for sonophoresis, additional test sample (2-5 ml) was added in order to assure the entire, or at least a large portion, of the ultrasonic transducer tip was immersed by the test gel during the ultrasound treatment. The excess gel was promptly removed from the donor cell after the ultrasound treatment so that the remaining test gel was approximately 0.2 ml.
Ultrasound treatments were carried out with the following test conditions: • a) Conventional ultrasound treatment with 90 degree angle (°) between the ultrasound direction and the skin surface; • b) Angled Ultrasound treatment with less than 90 degree angle between the ultrasound direction and the skin surface. […]

UT60°/Non-UTGel 1 (permeation enhancement factor) (6 hr): approximately 2.9 fold | UT60°/Non-UTGel 1 (permeation enhancement factor) (24 hr): ~2.0 fold | UT15°/Non-UTGel 1 (permeation enhancement factor) (6 hr): approximately 3.0 fold | UT15°/Non-UTGel 1 (permeation enhancement factor) (24 hr): approximately 3.0 fold | UT90°/Non-UTGel 1 (permeation enhancement factor) (6 hr): approximately 2.3 fold | UT90°/Non-UTGel 1 (permeation enhancement factor) (24 hr): ~2.0 fold
Structure (SMILES): CC(C)Cc1ccc(C(C)C(=O)O)cc1 (stereo not drawn) [ibuprofen]
